Reference: patent US20240032533A1 (priority 2020, published 2024)
Where two headings read alike, the source gives them in different places.

What was measured:
[1] = Water solubility as a function of pH; assay type: physicochemical; details: increases at pH values below 7.0 and above 7.0
[2] = tested on: Plasmopara viticola strain PvS; assay: Grapevine downy mildew, preventive treatment of detached grapevine leaves / leaf discs; assay type: in vivo; details: 2267 ppm, preventive 24 h, 7 dpi
Zymoseptoria tritici = assay: microbe, parasite or virus in culture; assay type: cell-based; details: for inhibition at 0.05 ppm / inhibition at 0.1 ppm / inhibition at 0.5 ppm / inhibition at 1 ppm: Zymoseptoria tritici
Phytophthora infestans = assay: microbe, parasite or virus in culture; assay type: cell-based; details: for inhibition at 0.05 ppm: read-out: Activity (%) 0.05 ppm; for inhibition at 0.1 ppm: read-out: Activity (%) 0.1 ppm; for inhibition at 0.5 ppm: read-out: Activity (%) 0.5 ppm; for inhibition at 1 ppm: read-out: Activity (%) 1 ppm; for inhibition at 5 ppm: read-out: Activity (%) 5 ppm; for inhibition at 10 ppm: read-out: Activity (%) 10 ppm; for inhibition at 50 ppm: read-out: Activity (%) 50 ppm
Venturia inaequalis = assay: microbe, parasite or virus in culture; assay type: cell-based
[3] = tested on: Phytophthora infestans strain Pi96; assay type: in vivo; details: for Disease Severity Index (%) 3 dpi / Disease Severity Index (%) 7 dpi / Disease Severity Index (%) 5 dpi / Disease Severity Index (%) 10 dpi: preventive 24 h

SMILES | inhibition at 0.05 ppm (Zymoseptoria tritici; 0.05 ppm) [%] | inhibition at 0.1 ppm (Zymoseptoria tritici) [%] | inhibition at 0.5 ppm (Zymoseptoria tritici; 0.5 ppm) [%] | inhibition at 1 ppm (Zymoseptoria tritici; 1 ppm) [%] | inhibition at 0.05 ppm (Phytophthora infestans) [%] | inhibition at 0.1 ppm (Phytophthora infestans) [%] | inhibition at 0.5 ppm (Phytophthora infestans) [%] | inhibition at 1 ppm (Phytophthora infestans) [%] | inhibition at 5 ppm (Phytophthora infestans) [%] | inhibition at 10 ppm (Phytophthora infestans) [%] | inhibition at 50 ppm (Phytophthora infestans) [%] | inhibition at 0.1 ppm (Venturia inaequalis) [%] | inhibition at 0.5 ppm (Venturia inaequalis) [%] | inhibition at 1 ppm (Venturia inaequalis) [%] | Activity (%) 0.1 ppm (Zymoseptoria tritici) [%] | other results
CCCCCCCCCCCCCCCCCC[S+](C)C.[Cl-] [octadecyl dimethyl sulfonium chloride] |  |  |  |  |  |  |  |  |  |  |  |  |  |  |  | water solubility, pH dependency [1]: minimum around pH 7.0
CCCCCCCCCCCCNC(=N)N [Dodine] | 5.2 | 21.4 | 101 | 98.1 | 12.5 | 12 | 59.4 | 81.9 | 93.8 | 95.5 | 98.9 | 83.2 | 98.2 | 97.3 |  | control towards Downy Mildew [2]: full control
CCCCCCCCCCCCCCCCCC[S+](C)C.[Cl-] [ODS-Cl, octadecyl dimethyl sulfonium chloride] | 6.5 |  | 11.5 | 91 | 6.2 | 12.6 | 12.5 | 12.3 | 14.1 | 29.3 | 98.4 | 14.3 | 97.4 | 97.2 | 8.8 | Disease Severity Index (%) 3 dpi ([3]; 50 ppm): 8.7%; Disease Severity Index (%) 7 dpi ([3]; 50 ppm): 40.0%; Disease Severity Index (%) 3 dpi ([3]; 100 ppm): 5.5%; Disease Severity Index (%) 3 dpi ([3]; 500 ppm): 0.0%; Disease Severity Index (%) 5 dpi ([3]; 500 ppm): 0.0%; Disease Severity Index (%) 7 dpi ([3]; 500 ppm): 0.0%; Disease Severity Index (%) 10 dpi ([3]; 500 ppm): 0.0%; control of the disease (late blight) ([3]; 1000 ppm): full control; Disease Severity Index (%) 3 dpi ([3]; 1000 ppm): 0.0%; Disease Severity Index (%) 5 dpi ([3]; 1000 ppm): 0.0%; Disease Severity Index (%) 7 dpi ([3]; 1000 ppm): 0.0%; Disease Severity Index (%) 10 dpi ([3]; 1000 ppm): 0.0%
N#Cc1c(Cl)c(Cl)c(Cl)c(C#N)c1Cl [Chlorothalonil] | 4.3 | 10 | 17.9 | 54.7 | -11.8 | -5.8 | -2 | 15.3 | 99.2 | 98.5 | 100 | 34.3 | 88.8 | 97.4 |  | 
CCCCCCCCCCCCCCCCCC[S+](C)C.[I-] [1-5, octadecyl dimethyl sulfonium iodide] |  |  |  |  |  |  |  |  |  |  |  |  |  |  | 2.7 | Activity (%) 0.05 ppm (Zymoseptoria tritici; 0.05 ppm): 6.4%; Activity (%) 0.5 ppm (Zymoseptoria tritici; 0.5 ppm): 11.2%; Activity (%) 1 ppm (Zymoseptoria tritici; 1 ppm): 92.7%
